# Experimental data: patent US12383539B2 (Cavion, Inc., priority 2018, dated 2025)
# “And” between values parts separate entries of the source, which are not always exact repeats. Identical values can stand only once. Like-named read-outs stand apart in the source and are kept apart here.
# Experiments:
# [1] = Clinical PK crossover study of IR, MR1 and MR2 capsules, single 8 mg dose; assay type: in vivo, human
# From the text: Subjects will be screened for study eligibility within 28 days before administration of the first dose of study drug. Subjects who meet the study eligibility criteria will be admitted to the clinical research unit in the afternoon of the day before administration of the first dose of study drug (Period 1/Day −1).
# Treatments A, B, and C will be separated by a minimum 7-day washout period. […] Administration of Treatment D may be separated from administration of Treatments A, B, and C by approximately 4 weeks to allow for analysis of the bioanalytical samples from the first 3 treatments.
# A single dose, crossover clinical trial was conducted in 15 subjects ranging in age from 35-75 years.
# [2] = assay type: in vivo; conditions: rat NOAEL 300 mg/kg, human 10 mg BID
# [3] = assay type: in vivo; conditions: dog NOAEL 30 mg/kg, human 10 mg BID
# [4] = following a single 8 mg dose of IR CX-8998
# [5] = following a single 8 mg dose of MR1 CX-8998
# [6] = following a single 8 mg dose of MR2 CX-8998
smiles,measurement,setting,value
C=C(C)c1ccc(CC(=O)N[C@H](C)c2ccc(OCC(F)(F)F)cn2)cc1 [M01],AUC72hr Ratio (metabolite to CX-8998),[1]; [4],0.92
same,Cmax Ratio (metabolite to CX-8998),[1]; [4],0.14
same,AUC72hr Ratio (metabolite to CX-8998),[1]; [5],0.95
same,Cmax Ratio (metabolite to CX-8998),[1]; [5],0.27
same,AUC72hr Ratio (metabolite to CX-8998),[1]; [6],0.90
same,Cmax Ratio (metabolite to CX-8998),[1]; [6],0.35
same,"total safety margin, AUC24hr","[2]; Day 90, female",13 fold
same,"total safety margin, Css (animal Cmax / human estimated Css at steady state)","[2]; Day 90, female",21 fold
same,"total safety margin, AUC24hr","[2]; Day 90, male",6.8 fold
same,"total safety margin, Css (animal Cmax / human estimated Css at steady state)","[2]; Day 90, male",13 fold
same,"total safety margin, AUC24hr","[3]; Day 90, female",5.6 fold
same,"total safety margin, Css (animal Cmax / human estimated Css at steady state)","[3]; Day 90, female",8 fold and 8.0 fold
same,"total safety margin, AUC24hr","[3]; Day 90, male",6.5 fold
same,"total safety margin, Css (animal Cmax / human estimated Css at steady state)","[3]; Day 90, male",10 fold
